# Measured values from patent US20260091209A1, “DRUG DELIVERY DEVICE” (priority 2022, published 2026).
# Legend:
# [1] = Drug release rate into 50:50 DMSO:water release media, HPLC; assay type: physicochemical; settings: for completeness of release after 7 days / course of release (plateau): FOLFIRINOX components from device, FIG. 5; for course of release (plateau): over 7 days
# Protocol: Drug release rate was measured using 50 mL of release media consisting of 50:50 DMSO:water to ensure that all drugs in the composition remained under sink conditions. Each device was suspended above the release media in a 50 mL sealed Duran bottle with only the permeable release zone in contact with the release media. The Duran bottle was subsequently placed in a shaking incubator at 37° C. and 60 RPM. 5 mL samples of release media were removed and replaced with 5 mL of fresh media either every day for 6 days or at day 1, 3, 5 and 7. The samples were analysed for drug concentration using HPLC.
# Release of the drug oxaliplatin by (i) an exposed sponge and (ii) a device according to the present invention was compared. The sponge was a gelatin sponge exposed to 50 mL of release media consisting of 50:50 DMSO. The sponge had the proportions 5 mm×10 mm×10 mm. […] The implantable device according to the invention contained a sponge within the enclosed space. Drug release was determined according to the methodology outlined above.
# Release of the drug components of the FOLFIRINOX regimen from a device according to the invention was investigated. […] The implantable device according to the invention contained a sponge within the enclosed space. Drug release was determined according to the methodology outlined above.
# The release of the drug irinotecan over 6 days through various membranes for use as the permeable release zone was investigated, to show how the device of the invention provides the skilled person with control over the release profile for the drug, by varying properties of the membrane.
# [2] = system: pancreatic cancer; settings: cited from earlier work
# [3] = 1 mm EVA membrane, no pores, 75% infill
compound,measurement,setting,value
O=c1[nH]cc(F)c(=O)[nH]1 [fluorouracil],completeness of release after 7 days,[1]; [3],still not complete
same,course of release (plateau),[1]; [3],began to plateau after three days
Nc1ccn([C@@H]2O[C@H](CO)[C@@H](O)C2(F)F)c(=O)n1 [gemcitabine],median disease-free survival,"[2]; Conroy et al (2018), patients after surgery",12.8 months
same,disease-free survival rate at 3 years,[2]; Conroy et al (2018),21.4%
same,median overall survival,[2]; Conroy et al (2018),35.0 months
same,overall survival rate at 3 years,[2]; Conroy et al (2018),48.6%
same,"adverse events of grade 3 or 4, share of patients",[2]; Conroy et al.,52.9%
CCc1c2c(nc3ccc(OC(=O)N4CCC(N5CCCCC5)CC4)cc13)-c1cc3c(c(=O)n1C2)COC(=O)[C@]3(O)CC [irinotecan],"release rate, membrane pore sizes 3 mm, 4 mm and 5 mm","[1]; 4 pores each, over 6 days, FIG. 6D",as pore size increased the rate of release also increased
same,completeness of release after 7 days,[1]; [3],still not complete
same,course of release (plateau),[1]; [3],began to plateau after three days
same,release character across all membranes investigated,"[1]; device, over 6 days",useful sustained release
same,"release rate, membrane thickness 1 mm versus 2 mm","[1]; device, over 6 days, FIG. 6A",released faster through the membrane with a thickness of 1 mm
same,"release rate, 3D printed membrane infill 50%, 75% and 100%","[1]; device, over 6 days, FIG. 6B","as the percentage infill increased, the release rate slowed"
same,"release rate, membranes with one, two or four pores","[1]; pores 3 mm diameter, over 6 days, FIG. 6C",as the number of pores increased the rate of release also increased
Nc1nc2c(c(=O)[nH]1)N(C=O)C(CNc1ccc(C(=O)N[C@@H](CCC(=O)O)C(=O)O)cc1)CN2 (stereo partly drawn) [leucovorin],completeness of release after 7 days,[1]; [3],still not complete
same,course of release (plateau),[1]; [3],began to plateau after three days
O=C1[O][Pt]2([NH][C@@H]3CCCC[C@H]3[NH]2)[O]C1=O [oxaliplatin],completeness of release after 7 days,[1]; [3],still not complete
same,course of release (plateau),[1]; [3],began to plateau after three days
same,completeness of release at 7 days (168 hours),"[1]; device, 1 mm EVA membrane, no pores, 75% infill, sponge inside, FIG. 4",not complete
same,release plateau,"[1]; device, 1 mm EVA membrane, no pores, 75% infill, after 5 days, FIG. 4",75%
same,time to complete release,"[1]; exposed gelatin sponge (comparative), FIG. 3",≤ 7 h
